From ChEMBL document CHEMBL3988442, “University of Dundee, Small-Polar-MMV Screening Library” (2021)

What was measured:
[1] = microbe, parasite or virus in culture; details: Mycobacterium tuberculosis, 96 h, read-out: pIC50 (converted)
[2] = microbe, parasite or virus in culture; details: Mycobacterium tuberculosis, 72 h, read-out: pIC50 (converted)

Row | Structure (SMILES) | IC50 [1] [µM] | IC50 [2] [µM]
1 | CN(C)S(=O)(=O)N1CCCC1c1ccccc1Br (stereo not drawn) | 273 | 206
2 | CSCc1cc(F)ccc1CNC(=O)c1cn[nH]c1C | > 501 | > 501
3 | O=C(Nc1nc(-c2ccsc2)ns1)C1CCCN1 (stereo not drawn) | > 501 | > 501
4 | Cc1ncsc1CCC(=O)N1CCCC1c1cccnc1 (stereo not drawn) | > 50.1 | > 50.1
5 | CC(=O)N1CCCC1c1nnc2n1CCCCC2 (stereo not drawn) | > 50.1 | > 50.1
6 | CC1(C)Oc2ccc(NC(=O)C3CCOC3)cc2O1 (stereo not drawn) | 261 | 289
7 | NCC1CN(Cc2c(Cl)cncc2Cl)CCO1 (stereo not drawn) | > 501 | 70.8
8 | COC(=O)c1csc(NC(=O)CCn2cccn2)c1 | > 501 | 303
9 | CN(C)C(=O)COC(=O)c1ccc2ccccc2n1 | > 501 | 142
10 | Cc1nc(NC(C)C)nc2c1CN(Cc1cccs1)CC2 | 27 | > 50.1
11 | CS(=O)(=O)N1CCc2[nH]cnc2C12CCN(C(=O)c1ccccc1)CC2 | > 50.1 | > 50.1
12 | CCc1ncc(CN(CCc2ccccc2)Cc2cccs2)cn1 | 9.25 | 19.7
13 | CN(C)C1(CN)Cc2ccccc2C1 | 127 | 81.5
14 | Cc1nc(CCN)cc(NC2CCC2)n1 | > 501 | 145
15 | COc1cccc(S(=O)(=O)CCN2CCN(C)CC2)c1 | > 501 | > 501
16 | Cc1ncsc1C(=O)NC1CCCCNC1=O (stereo not drawn) | > 501 | > 501
17 | CC(Nc1ccc2c(c1)CCC2)c1nc(C2CC2)no1 (stereo not drawn) | 0.183 | 0.704
18 | CC(=O)Nc1nc(COc2ccc(C)cn2)cs1 | 244 | 237
19 | OCCCN1CCC(=Cc2ccccc2)CC1 | 250 | 277
20 | O=c1c2ccccc2cnn1CN1CCCC1 | > 501 | > 501
21 | O=C(NCCSC1CCCC1)c1ccccn1 | > 501 | 173
22 | Clc1ccc(CSc2cnn[nH]2)s1 | 267 | 236
23 | CC(N)Cc1ccccc1Sc1ccc(O)cc1 (stereo not drawn) | > 50.1 | > 50.1
24 | O=C(CSc1ncnn1-c1ccccc1)N1CCCC1 | 101 | 200
25 | CC(=O)N1CCC(C(=O)c2ccc(C)cc2)CC1 | > 501 | 100
26 | CN(C)S(=O)(=O)N1CCCC1COc1ccccc1 (stereo not drawn) | 271 | 360
27 | O=c1c(Cc2ccccc2)c(O)ccn1Cc1cccs1 | > 50.1 | > 50.1

Row | Structure (SMILES) | IC50 [1] [µM] | IC50 [2] [µM]
28 | Fc1ccccc1OC1CCN(CCn2cc3ccccc3n2)CC1 | 47.9 | > 50.1
29 | CCn1ccc(C(=O)NC(C)c2ccccc2)n1 (stereo not drawn) | 182 | 84.4
30 | O=C(c1ccc(NCc2cccc(F)c2)cc1)N1CCCC1 | > 50.1 | > 50.1
31 | Cc1noc(-c2c[nH]nc2C2CCCN2C(=O)c2ccccc2)c1C (stereo not drawn) | > 50.1 | > 50.1
32 | CC(=O)NCC(Cc1cccc(F)c1)n1cccc1 (stereo not drawn) | 42.5 | > 50.1
33 | CNC(=O)CCSc1ccc2c(c1)OCCO2 | 165 | 143
34 | Cc1nn(C)c2ncnc(N(C)CC3CCN(CC(C)C)C3)c12 (stereo not drawn) | > 50.1 | > 50.1
35 | COc1cc(Oc2cnc3ccccc3n2)ccc1CN1CCCC1 | 13 | 9.42
36 | CCCc1noc(C(C)Nc2cccc(C(N)=O)c2)n1 (stereo not drawn) | 156 | 56.4
37 | CC(C)c1cc(C(=O)N2CC[C@@H](N)C2)nn1C(C)(C)C | > 501 | > 501
38 | COc1cccc2c1CCNCC2 | 348 | 271
39 | COCCN(C)CCNC(=O)c1ccc(Cl)cc1 | > 501 | 165
40 | CSCCC(=O)N(C)Cc1cccc(-n2cccn2)c1 | 286 | 269
41 | CCC(CC)C(CN)N(C)C (stereo not drawn) | 204 | 78.1
42 | O=c1c2ccccc2nc2n1C(CSc1ccc(F)cc1)CN2 (stereo not drawn) | > 50.1 | > 50.1
43 | COCCN(C)S(=O)(=O)c1cc(F)c(C)cc1F | > 501 | 465
44 | O=C(CSCc1ccc(Cl)s1)N1CCOCC1 | 286 | 304
45 | Cc1cnn(CCNc2ccc(F)cn2)c1 | > 501 | 365
46 | O=S(=O)(Cc1ccc(Br)cc1)NCCO | > 50.1 | > 50.1
47 | O=C(c1cnsn1)N1CC=C(c2ccccc2)CC1 | 237 | 35.1
48 | Fc1ccc(CSc2nnnn2CC2CCCO2)cc1 (stereo not drawn) | 80.8 | 39
49 | COc1cccc(N2CCC(CN)C2)c1 (stereo not drawn) | 290 | 69.7
50 | CN(CCc1ccccc1)Cc1nc(Cc2cccc(F)c2)no1 | 33.8 | 2.69
51 | CCOC(=O)c1ccc(CN2CCOCC2)cn1 | > 501 | > 501
52 | CN(C)CCOc1ccccc1CN | > 501 | > 501
53 | O=C(Cc1ccc2c(c1)OCCO2)N1CCCC(n2ccnc2)C1 (stereo not drawn) | > 50.1 | > 50.1
54 | Cn1cc(C(=O)N[C@@H]2CN(Cc3ccc(F)cc3)[C@@H]3CCCO[C@@H]32)cn1 | > 50.1 | > 50.1
